Where a name gives a salt, the structure may show the parent alone.
melting point [°C] | Compound
260.1 to 261.1 | COc1ccc(-c2oc3ccc(NC(C)=N)cc3c(=O)c2O)cc1 (as salt: hydrochloride) (hydrate or solvate) [Example 12, 2-(4-methoxyphenyl)-3-hydroxy-6-[(1-iminoethyl)amino]-4H-1-benzopyran-4-one hydrochloride monohydrate]
249.1 to 251.1 | N=C(CC1CC1)Nc1ccc2oc(-c3ccc(-n4ccnc4)cc3)c(O)c(=O)c2c1 (as salt: hydrochloride) (hydrate or solvate) [Example 6, 2-[(4-imidazol-1-yl)-phenyl]-3-hydroxy-6-[(1-iminoethyl-2-cyclopropyl)amino]-4H-1-benzopyran-4-one dihydrochloride monohydrate]
262.3 to 262.9 | CC(=N)Nc1ccc2oc(-c3ccc4c(c3)OCO4)c(O)c(=O)c2c1 (as salt: hydrochloride) [Example 16, 2-(benzo[1,3]dioxol-5-yl)-3-hydroxy-6-[(1-iminoethyl)amino]-4H-1-benzopyran-4-one hydrochloride]
291 to 292 | CC(=N)Nc1ccc2oc(-c3ccc4c(c3)CCO4)c(O)c(=O)c2c1 (as salt: hydrochloride) [Example 15, 2-(dihydrobenzofuran-5-yl)-3-hydroxy-6-[(1-iminoethyl)amino]-4H-1-benzopyran-4-one hydrochloride]
281 to 281.5 | N=C(CC1CC1)Nc1ccc2oc(-c3ccc(O)cc3)c(O)c(=O)c2c1 (as salt: hydrochloride) [Example 11, 2-(4-hydroxyphenyl-3-hydroxy-6-[(1-iminoethyl-2-cyclopropyl)amino]-4H-1-benzopyran-4-one hydrochloride]
281 to 281.5 | CC(=N)Nc1ccc2oc(-c3cccc(-n4ccnc4)c3)c(O)c(=O)c2c1 (as salt: hydrochloride) [Example 8, 2-[(3-(imidazol-1-yl)-phenyl]-3-hydroxy-6-[(1-iminoethyl)amino]-4H-1-benzopyran-4-one dihydrochloride]

Compound | melting point [°C]
CC(=N)Nc1ccc2oc(-c3ccc4c(c3)OCO4)cc(=O)c2c1 (as salt: hydrochloride) [Example 4, 2-(benzo[1,3]dioxol-5-yl)-6-[(1-iminoethyl)amino]-4H-1-benzopyran-4-one hydrochloride] | 272.7 to 273.3

Reference: patent US8372866B2, “2-aryl and 2-heteroaryl 4H-1-benzopyran-4-one-6-amidino derivatives, new pharmacological agents for the treatment of arthritis, cancer and related pain” (Rottapharm S.p.A., priority 2008, dated 2013)
